Structures can show the parent of a compound that is named as a salt. Where two headings read alike, the source gives them in different places.
Legend:
[1] = target: T1, human 5HT1Dβ receptor (Homo sapiens, UniProt P28222); experiment: Inhibition of forskolin-stimulated cyclic AMP formation mediated by human 5HT1Dβ receptor in transfected CHO-K1 cells (intrinsic agonist activity); type: cell-based
T1 construct: expressed in transfected cells; host or cells: CHO-K1
Description: (§1) Human 5HT1Dα and 5HT1Dβ receptors were cloned according to the sequences published by M. Hamblin and M. Metcalf, Mol. Pharmacol., 40, 143 (1991) and Weinshenk et al., Proc. Natl. Acad. Sci. 89, 3630 (1992).
(§2) Transitory transfection and permanent transfection of the genes for these receptors was carried out in cell lines Cos-7 and CHO-K1 using an electroporator.
Inhibition of the formation of cyclic AMP (stimulated by forskolin) mediated by the human 5HT1Dβ receptor was studied in CHO-K1 cells transfected with the receptor according to the technique described beforehand for the 5HT1B receptor (P. Pauwels and C. Palmier, Neuropharmacology, 33, 67, 1994).
**Intrinsic agonist acitivity (inhibition of the formation of cyclic AMP
induced by forskolin in CHO--K1 cells).

[2] = target: T2, human 5HT1Dα receptor (Homo sapiens, UniProt P28221); experiment: Binding to human 5HT1Dα receptor ([3H]-5CT displacement)
T2 construct: expressed in transfected cells
T2 sequence (P28221 whole entry): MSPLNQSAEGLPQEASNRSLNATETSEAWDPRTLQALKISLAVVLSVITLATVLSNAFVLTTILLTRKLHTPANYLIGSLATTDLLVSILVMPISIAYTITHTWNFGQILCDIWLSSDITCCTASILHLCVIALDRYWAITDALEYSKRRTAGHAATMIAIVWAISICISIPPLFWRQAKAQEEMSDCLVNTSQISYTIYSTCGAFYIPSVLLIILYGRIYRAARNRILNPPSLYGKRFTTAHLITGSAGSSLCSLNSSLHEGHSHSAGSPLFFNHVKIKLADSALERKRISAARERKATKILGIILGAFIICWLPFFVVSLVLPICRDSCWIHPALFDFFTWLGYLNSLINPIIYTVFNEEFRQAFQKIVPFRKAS
Description: as §1, §2
(§3) The binding of the derivatives of the present invention with the human 5HT1Dα, 5HT1Dβ and 5HT1A receptors was studied according to the method described by P. Pauwels and C. Palmier (Neuropharmacology, 33, 67, 1994).
(§4) The incubation media for these binding measurements comprise 0.4 ml of cell membrane preparation, 0.05 ml of a tritiated ligand [[3H]-5CT (final concentration: 2 nM) for the 5HT1Dα and 5HT1Dβ receptors and [3H]-8OH-DPAT (final concentration: 1 nM) for the 5HT1A receptor] and 0.05 ml of the test molecule (final concentrations of 0.1 nM to 1000 nM) or 10 μM (final concentration) of serotonin (5HT1Dα and 5HT1Dβ) or 1 μM (final concentration) of spiroxatrine (5HT1A).

[3] = target: T1, human 5HT1Dβ receptor; experiment: Binding to human 5HT1Dβ receptor ([3H]-5CT displacement)
Description: as §1, §2, §3, §4

[4] = target: T3, human 5HT1A receptor (Homo sapiens, UniProt P08908); experiment: Binding to human 5HT1A receptor ([3H]-8OH-DPAT displacement, HeLa HA7 cell line); conditions: read-out: 5HT1A Ki (affinity for the receptors concerned)
T3 construct: host or cells: HeLa HA7
T3 sequence (P08908 1-422): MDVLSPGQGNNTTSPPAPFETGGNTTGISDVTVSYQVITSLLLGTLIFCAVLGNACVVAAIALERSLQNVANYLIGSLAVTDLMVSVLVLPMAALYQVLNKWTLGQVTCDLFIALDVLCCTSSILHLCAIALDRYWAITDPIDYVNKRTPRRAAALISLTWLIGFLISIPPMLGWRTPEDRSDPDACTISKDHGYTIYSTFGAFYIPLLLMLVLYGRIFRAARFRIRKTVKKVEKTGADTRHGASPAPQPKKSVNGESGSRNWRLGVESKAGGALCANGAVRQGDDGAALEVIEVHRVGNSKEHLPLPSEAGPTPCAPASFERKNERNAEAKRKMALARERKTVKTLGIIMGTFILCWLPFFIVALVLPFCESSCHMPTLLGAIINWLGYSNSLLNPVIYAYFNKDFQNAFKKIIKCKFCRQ
Excerpt: The binding of the derivatives of the present invention with the human 5HT1Dα, 5HT1Dβ and 5HT1A receptors was studied according to the method described by P. Pauwels and C.

[5] = CHO-K1 cells, forskolin stimulated, read-out: 5HT1Dβ EC50 (intrinsic agonist activity, inhibition of the formation of cyclic AMP induced by forskolin)
[6] = [3H]-5CT 2 nM, cell membrane preparation, read-out: 5HT1Dα Ki (affinity for the receptors concerned)
[7] = [3H]-5CT 2 nM, cell membrane preparation, read-out: 5HT1Dβ Ki (affinity for the receptors concerned)
[8] = [3H]-8OH-DPAT 1 nM, HeLa HA7 cell line

T1 sequence (P28222 whole entry): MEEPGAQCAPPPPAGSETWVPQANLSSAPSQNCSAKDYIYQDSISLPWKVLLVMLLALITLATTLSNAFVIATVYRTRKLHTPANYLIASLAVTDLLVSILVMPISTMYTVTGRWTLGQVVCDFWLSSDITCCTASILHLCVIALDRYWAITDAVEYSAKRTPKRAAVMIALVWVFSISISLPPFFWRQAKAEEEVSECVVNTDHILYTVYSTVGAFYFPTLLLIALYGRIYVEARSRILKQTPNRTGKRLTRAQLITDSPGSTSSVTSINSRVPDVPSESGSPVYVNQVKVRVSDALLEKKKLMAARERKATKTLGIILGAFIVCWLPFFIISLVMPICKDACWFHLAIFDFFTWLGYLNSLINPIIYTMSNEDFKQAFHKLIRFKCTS

EC50 [1, 5] [nM] | Ki [2, 6] [nM] | Ki [3, 7] [nM] | Ki [4, 8] [nM] | SMILES | Ki [4] [nM] | EC50 [1] [nM] | Ki [2] [nM] | Ki [3] [nM]
> 1000 | 68 | 2 |  | COc1ccc(NC(=O)N2CCN(c3ccccc3OC)CC2)cc1N1CCN(C)CC1 [Example 2, N-[4-Methoxy-3-(4-methylpiperazin-1-yl)phenyl]-4-(o-methoxyphenyl)piperazin-1-ylamide fumarate] |  |  |  | 
> 1000 | 0.68 | 0.28 | 50 | Cc1ccccc1N1CCN(C(=O)COc2ccc3cccc(N4CCN(C)CC4)c3c2)CC1 [Example 16, 2-[8-(4-Methylpiperazin-1-yl)naphthalen-2-yloxy]-1-(4-o-tolylpiperazin-1-yl)ethanone] |  |  |  | 
> 1000 | 120 | 11.2 | 714 | COc1ccc(NC(=O)N2CCN(c3ccccc3C#N)CC2)cc1N1CCN(C)CC1 [Example 8, N-[4-Methoxy-3-(4-methylpiperazin-1-yl)phenyl]-4-(o-cyanophenyl)piperazin-1-ylamide fumarate] |  |  |  | 
> 1000 | 230 | 8.4 | 1000 | COc1ccc(N2CCN(C(=O)Nc3ccc(OC)c(N4CCN(C)CC4)c3)CC2)cc1 [Example 3, fumarate] |  |  |  | 
> 1000 | 114 | 5 | 457 | COc1ccc(NC(=O)N2CCN(c3ccc([N+](=O)[O-])cc3)CC2)cc1N1CCN(C)CC1 [Example 6, N-[4-[4-Methoxy-3-(4-methylpiperazin-1-yl)phenyl]-4-(p-nitrophenyl)piperazin-1-ylamide fumarate] |  |  |  | 
> 1000 | 48 | 2.3 | 396 | COc1ccc(NC(=O)N2CCN(c3ccccc3C)CC2)cc1N1CCN(C)CC1 [Example 1, N-[4-methoxy-3-(4-methylpiperazin-1-yl)phenyl]-4-(o-tolylpiperazin-1-ylamide fumarate] |  |  |  | 
> 1000 | 140 | 8.2 | 786 | COc1ccc(NC(=O)N2CCN(c3ccc4c(c3)OCO4)CC2)cc1N1CCN(C)CC1 [Example 7, N-[4-Methoxy-3-(4-methylpiperazin-1-yl)phenyl]-4-(3,4-methylenedioxy)phenylpiperazin-1-ylamide difumarate] |  |  |  | 
> 1000 | 42 | 1.2 | 557 | COc1ccc(NC(=O)N2CCN(c3cccc(C)c3C)CC2)cc1N1CCN(C)CC1 [Example 5, fumarate] |  |  |  | 

SMILES | EC50 [1, 5] [nM] | Ki [2, 6] [nM] | Ki [3, 7] [nM] | Ki [4, 8] [nM] | Ki [4] [nM] | EC50 [1] [nM] | Ki [2] [nM] | Ki [3] [nM]
COc1ccc(NCC(=O)N2CCN(c3ccccc3C)CC2)cc1N1CCN(C)CC1 [Example 12, 2-[4-Methoxy-3-(4-methylpiperazin-1-yl)phenylamino]-1-(4-o-tolylpiperazin-1-yl)ethanone fumarate] | > 1000 | 420 | 28 |  | 3000 |  |  | 
CN1CCN(c2cccc3ccc(OC(=O)N4CCN(c5ccccc5)CC4)cc23)CC1 [Example 19, 8-(4-Methylpiperazin-1-yl)naphthalen-2-yl 4-phenylpiperazin-1-yloate] |  |  |  | 16 |  | > 1000 | 2.8 | 0.5

From patent US5789412A, “Piperazides derived from arylpiperazine, processes for their preparation, their use as medicaments and pharmaceutical compositions comprising them” (Pierre Fabre Medicament, priority 1994, dated 1998)
